Source: patent publication US8273773B2 (priority 2008, dated 2012)

Columns and labels:
[1] = target: T1, HCV polymerase (NS5B570n-Con1) (Hepatitis C virus genotype 1b, UniProt Q9WMX2); assay: biochemical; parameters: species or system HCV Con1 strain;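 further: recombinant His-tagged enzyme from E. coli, radiolabeled nucleotide incorporation into acid-insoluble RNA read by scintillation after filtration, no-enzyme background subtracted, activity relative to positive control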
T1 construct: contains a 21 amino acid deletion at the C-terminus relative to the full-length HCV polymerase; 6-histidine (N); made in house; host or cells: E. coli strain BL21(DE) pLysS (pET17b)

[2] = IC50 HCV NS5B RNA Polymerase Assay, values without asterisk, 20 nM NS5B570n-Con1 enzyme, 20 nM cIRES RNA template

| Compound | melting point [°C] | IC50 [1, 2] [nM] | IC50 ([1]; IC50 HCV NS5B RNA Polymerase Assay (values with asterisk), values with asterisk: cIRES RNA template, 3 nM NS5B570n-Con1) [nM] |
| --- | --- | --- | --- |
| COc1c(CC(CN2CCC(F)(F)C2)c2ccc(NS(C)(=O)=O)cc2)cc(-c2ccc[nH]c2=O)cc1C(C)(C)C (stereo not shown) [I-195] | 133 to 135 | 18 | – |
| COc1c(NC(=O)c2ccc(N)cc2Cl)cc(-c2ccc[nH]c2=O)cc1C(C)(C)C [I-25] | 226 to 228 | 31 | – |
| COc1c(CCc2ccc(NS(C)(=O)=O)cc2)cc(-c2ccc(C)[nH]c2=O)cc1C(C)(C)C [I-64, N-(4-{2-[3-tert-Butyl-2-methoxy-5-(6-methyl-2-oxo-1,2-dihydro-pyridin-3-yl)-phenyl]-ethyl}-phenyl)-methanesulfonamide] | 239 to 241 | 8 | – |
| COc1c(C(=O)Nc2cccc(CNS(C)(=O)=O)c2)cc(-c2ccc[nH]c2=O)cc1C(C)(C)C [I-112, 3-tert-Butyl-N-[3-(methanesulfonylamino-methyl)-phenyl]-2-methoxy-5-(2-oxo-1,2-dihydro-pyridin-3-yl)-benzamide] | 145 to 147 | 48 | – |
| CCOc1ccc(-c2ccc[nH]c2=O)cc1C(C)(C)C [I-5] | 201 to 202 | 4680 | – |
| CC(C)(C)c1cc(CCc2ccc(F)cc2)c(O)c(-c2ccc[nH]c2=O)c1 [I-20] | 178 to 179 | 378 | – |
| COc1c(Cc2ccccc2)cc(-c2ccc[nH]c2=O)cc1C(C)(C)C [I-48] | 202.6 to 204.3 | 528 | – |
| COc1c(C(=O)Nc2ccccc2)cc(-c2ccc[nH]c2=O)cc1C(C)(C)C [I-68] | 288 to 290 | 107 | – |
| COc1c(CCc2ccc(NS(C)(=O)=O)c(C)c2)cc(-c2ccc[nH]c2=O)cc1C(C)(C)C [I-110] | 114 to 116 | 16 | – |
| COc1c(/C=C(\C#N)c2ccc(NS(C)(=O)=O)cc2)cc(-c2ccc[nH]c2=O)cc1C(C)(C)C [I-138, N-(4-{(Z)-2-[3-tert-Butyl-2-methoxy-5-(2-oxo-1,2-dihydro-pyridin-3-yl)-phenyl]-1-cyano-vinyl}-phenyl)-methanesulfonamide] | 288 to 290 | 10 | – |
| COc1c(CCc2ccc(NS(C)(=O)=O)nc2)cc(-c2ccc[nH]c2=O)cc1C(C)(C)C [I-123] | 140 to 142 | 3 | – |
| COc1c(CC(CN)c2ccc(NS(C)(=O)=O)cc2)cc(-c2ccc[nH]c2=O)cc1C(C)(C)C (stereo not shown) [I-191, N-(4-{1-Aminomethyl-2-[3-tert-butyl-2-methoxy-5-(2-oxo-1,2-dihydro-pyridin-3-yl)-phenyl]-ethyl}-phenyl)-methanesulfonamide] | 158 to 160 | 27 | – |
| CC1(C)COc2c(-c3ccc[nH]c3=O)cc(/C=C/c3ccc(NS(C)(=O)=O)cc3)cc21 [II-2] | 231 to 233 | 6 | – |
| COc1c(CCc2ccc(NS(C)(=O)=O)nn2)cc(-c2ccc[nH]c2=O)cc1C(C)(C)C [I-127] | 218 to 220 | 4 | – |
| COc1c(CCc2ccc(NS(C)(=O)=O)cc2)cc(-c2ccc[nH]c2=O)cc1C1(C)CC1 [I-108, N-(4-{2-[2-Methoxy-3-(1-methyl-cyclopropyl)-5-(2-oxo-1,2-dihydro-pyridin-3-yl)-phenyl]-ethyl}-phenyl)-methanesulfonamide] | 192 to 194 | 6 | – |
| Cc1cc(-c2cc(F)c[nH]c2=O)cc(C(C)(C)C)c1 [I-53] | 244 to 246 | 1930 | – |
| COc1c(CCc2ccc(F)cc2)cc(-c2ccc[nH]c2=O)cc1C(C)(C)C [I-21] | 157 to 158 | 90 | – |
| CCC(C)(C)c1cc(Br)c(O)c(-c2ccc[nH]c2=O)c1 [I-9] | 257.2 to 257.7 | 3100 | – |
| COc1c(C(=O)c2ccnc(N)c2)cc(-c2ccc[nH]c2=O)cc1C(C)(C)C [I-84, 3-[3-(2-Amino-pyridine-4-carbonyl)-5-tert-butyl-4-methoxy-phenyl]-1H-pyridin-2-one] | 140 to 145 | 32 | – |
| Cc1ccc(-c2cc(C(C)(C)C)cc(/C=C/c3ccc(NS(C)(=O)=O)cc3)c2O)c(=O)[nH]1 [I-140] | 258 to 260 | 322 | – |
| COc1c(CCc2ccc(NS(C)(=O)=O)cc2)cc(-c2cc(F)c[nH]c2=O)cc1C(C)(C)C [I-67] | 125 to 130 | 10 | – |
| COc1c(/C=C/c2ccc(NS(C)(=O)=O)cc2CO)cc(-c2ccc[nH]c2=O)cc1C(C)(C)C [I-205, N-(4-{(E)-2-[3-tert-Butyl-2-methoxy-5-(2-oxo-1,2-dihydro-pyridin-3-yl)-phenyl]-vinyl}-3-hydroxymethyl-phenyl)-methanesulfonamide] | 140 to 142 | – | 2 |
| COc1c(C)cc(-c2ccc[nH]c2=O)cc1C(C)(C)C [I-29] | 176 to 178 | 521 | – |
| COc1c(O)cc(-c2ccc[nH]c2=O)cc1C(C)(C)C [I-23] | 214 to 215 | 1170 | – |

| Compound | melting point [°C] | IC50 [1, 2] [nM] | IC50 ([1]; IC50 HCV NS5B RNA Polymerase Assay (values with asterisk), values with asterisk: cIRES RNA template, 3 nM NS5B570n-Con1) [nM] |
| --- | --- | --- | --- |
| CC(C)(CO)c1cc(CCc2ccc(NS(C)(=O)=O)cc2)c(O)c(-c2ccc[nH]c2=O)c1 [I-199, N-(4-{2-[2-Hydroxy-5-(2-hydroxy-1,1-dimethyl-ethyl)-3-(2-oxo-1,2-dihydro-pyridin-3-yl)-phenyl]-ethyl}-phenyl)-methanesulfonamide] | 118 to 120 | 13 | – |
| COc1cc(-c2ccc[nH]c2=O)cc(C(C)(C)C)c1OC [I-26] | 206.3 to 207.1 | 866 | – |
| COc1c(CCc2ccc(N)nn2)cc(-c2ccc[nH]c2=O)cc1C(C)(C)C [I-128] | 142 to 144 | 5 | – |
| COc1c(NC(=O)c2ccc(NS(C)(=O)=O)cc2)cc(-c2ccc[nH]c2=O)cc1C1(C)CC1 [I-82] | 254 to 256 | 6 | – |
| CC(C)(C)c1cc(-c2ccc[nH]c2=O)cc(S(=O)(=O)c2ccccc2)c1 [I-107, 3-(3-Benzenesulfonyl-5-tert-butyl-phenyl)-1H-pyridin-2-one] | 252 to 253 | 2490 | – |
| COc1c(CC(CN2CCOCC2)c2ccc(NS(C)(=O)=O)cc2)cc(-c2ccc[nH]c2=O)cc1C(C)(C)C (stereo not shown) [I-193] | 138 to 140 | 12 | – |
| COc1c(C(=O)c2cccc(F)c2)cc(-c2ccc[nH]c2=O)cc1C(C)(C)C [I-49] | 209 to 210 | 71 | – |
| COc1c(/C=C/c2ccccc2)cc(-c2ccc[nH]c2=O)cc1C(C)(C)C [I-144] | 183 to 185 | 11 | – |
| CC(C)(C)c1cc(/C=C/c2ccc(NS(C)(=O)=O)cc2)c(O)c(-c2ccc[nH]c2=O)c1 [I-137] | 180 to 182 | 10 | – |
| COc1c(CCc2ccc(NS(C)(=O)=O)c(F)c2)cc(-c2ccc[nH]c2=O)cc1C(C)(C)C [I-103] | 111 to 113 | 8 | – |
| COc1c(CC(C)(CN)c2ccc(NS(C)(=O)=O)cc2)cc(-c2ccc[nH]c2=O)cc1C(C)(C)C (stereo not shown) [I-197, N-(4-{1-Aminomethyl-2-[3-tert-butyl-2-methoxy-5-(2-oxo-1,2-dihydro-pyridin-3-yl)-phenyl]-1-methyl-ethyl}-phenyl)-methanesulfonamide] | 240 to 242 | 84 | – |
| COc1c(C(=O)c2cccc(CNS(C)(=O)=O)c2)cc(-c2ccc[nH]c2=O)cc1C(C)(C)C [I-65] | 110 to 115 | 30 | – |
| CC(C)(C)c1cc(/C=C/c2ccc(NS(C)(=O)=O)cc2)cc(-c2cc(F)c[nH]c2=O)c1 [I-148] | 210 to 212 | 6 | – |
| COc1c(/C=C/c2ccc(NS(C)(=O)=O)cc2C#N)cc(-c2ccc[nH]c2=O)cc1C(C)(C)C [I-150, N-(4-{(E)-2-[3-tert-Butyl-2-methoxy-5-(2-oxo-1,2-dihydro-pyridin-3-yl)-phenyl]-vinyl}-3-cyano-phenyl)-methanesulfonamide] | 266 to 268 | 3 | – |
| COc1c(C(=O)NC2CC2)cc(-c2ccc[nH]c2=O)cc1C(C)(C)C [I-19] | 223 to 224 | 1620 | – |
| CC(C)(C)c1cc(/C=C/c2ccc(NS(C)(=O)=O)cc2C#N)cc(-c2ccc[nH]c2=O)c1 [I-147, N-(4-{(E)-2-[3-tert-Butyl-5-(2-oxo-1,2-dihydro-pyridin-3-yl)-phenyl]-vinyl}-3-cyano-phenyl)-methanesulfonamide] | > 300 | 2 | – |
| COc1c(C(=O)NC2CCCCC2)cc(-c2ccc[nH]c2=O)cc1C(C)(C)C [I-101] | 136 to 138 | 753 | – |
| COc1c(CCc2ccc(NS(C)(=O)=O)cc2F)cc(-c2ccc[nH]c2=O)cc1C(C)(C)C [I-102, N-(4-{2-[3-tert-Butyl-2-methoxy-5-(2-oxo-1,2-dihydro-pyridin-3-yl)-phenyl]-ethyl}-3-fluoro-phenyl)-methanesulfonamide] | 120 to 122 | 8 | – |
| CC(C)(C)c1cc(CCc2ccc(NS(C)(=O)=O)cc2)c(C#N)c(-c2ccc[nH]c2=O)c1 [I-87, N-(4-{2-[5-tert-butyl-2-cyano-3-(2-oxo-1,2-dihydro-pyridin-3-yl)-phenyl]-ethyl}-phenyl)-methanesulfonamide] | 128 to 130 | 13 | – |
| COc1c(NC(=O)c2ccc(NS(C)(=O)=O)cc2Cl)cc(-c2ccc[nH]c2=O)cc1C(C)(C)C [I-116] | 263 to 265 | 11 | – |
| COc1c(C(=O)c2cccc(O)c2)cc(-c2ccc[nH]c2=O)cc1C(C)(C)C [I-54] | 145 to 148 | 9 | – |
| CCc1cc(-c2ccc[nH]c2=O)cc(C(C)(C)C)c1OC [I-30] | 213 to 214 | 728 | – |
| CC(C)(C)c1cc(Cc2ccccc2)c(O)c(-c2ccc[nH]c2=O)c1 [I-17] | 236 to 237 | 293 | – |
